# Assay results from ChEMBL document CHEMBL4651402, “Screening of ~5500 FDA-approved drugs and clinical candidates for anti-SARS-CoV-2 activity” (2021).
# Counter-ions that a name gives are not always drawn. Square brackets hold non-standard residues; d marks the D form. Peptide text beside a SMILES is read from it. pGlu = O=C1CC[C@@H](C(=O)O)N1; Thz = O=C(O)[C@@H]1CSCN1
# Test system: SARS-CoV-2
# Assay: microbe, parasite or virus in culture
# Details: Severe acute respiratory syndrome coronavirus 2, Vero C1008, 48 h
SMILES,IC50 [µM],IC50 (read-out: pIC50 (converted)) [µM]
CCCCC(C(=O)O)C(=O)N(Nc1ccccc1)c1ccccc1 (stereo unspecified) [BUMADIZONE],> 20,> 20
C[C@@H]1CN(Cc2ccc(F)cc2)CCN1C(=O)COc1ccc(Cl)cc1NC(N)=O [BX 471 FREE BASE],> 20,> 20
Cn1c(=O)c2nc[nH]c2n(C)c1=O [THEOPHYLLINE],> 20,> 20
COc1cccc([C@H]2C[C@@H](N[C@H](C)c3ccccc3)C(=O)N2c2ccc(C(F)(F)F)cc2)c1 [MEPPEP],> 20,> 20
CCN(CCCCOC(=O)c1ccc(OC)c(OC)c1)C(C)Cc1ccc(OC)cc1 (stereo unspecified) [MEBEVERINE],> 20,> 20
c1cnc2c(c1)C[C@@]1(CN3CCC1CC3)O2 [AZD0328],> 20,> 20
O=[N+]([O-])c1ccc(NN=C(c2ccc(O)cc2)c2ccc(O)cc2)c([N+](=O)[O-])c1,> 20,> 20
CN(C)[C@@H]1[C@@H]2C=CC[C@H]1c1ccccc1C2,> 20,> 20
CCCc1nc(C)c2c(=O)nc(-c3cc(S(=O)(=O)N4CCN(CC)CC4)ccc3OCC)[nH]n12,> 20,> 20
CNC(=O)[C@H]1O[C@@H](n2cnc3c(NCc4cccc(I)c4)nc(Cl)nc32)[C@H](O)[C@@H]1O [NAMODENOSON],> 20,> 20
COc1ccc2cc([C@@H](C)C(=O)O)ccc2c1,> 20,> 20
CC[C@@H]1C[C@]1(NC(=O)[C@@H]1C[C@@H]2CN1C(=O)[C@H](C(C)(C)C)NC(=O)OCC(C)(C)CCCCc1cccc3c1CN(C3)C(=O)O2)C(=O)NS(=O)(=O)C1CC1,> 20,> 20
CN(C)C1CCc2[nH]c3ccccc3c2C1 (stereo unspecified) [CYCLINDOLE],> 20,> 20
CCCN1C[C@H](CSC)C[C@@H]2c3cccc4[nH]cc(c34)C[C@H]21 [PERGOLIDE MESYLATE],> 20,> 20
CCN(C/C=C\c1ccc(C2CCCCC2)c(Cl)c1)C1CCCCC1,> 20,> 20
COc1cc(N)c(Cl)cc1C(=O)NC1CN2CCC1CC2 (stereo unspecified) [ZACOPRIDE],> 20,> 20
COc1ccc(-c2ccc(=N)n(CCCC(=O)O)n2)cc1 [GABAZINE],> 20,> 20
COC(=O)Nc1nc2cc(C(=O)c3ccc(F)cc3)ccc2[nH]1 [FLUBENDAZOLE],> 20,> 20
N=C(N)NCCCNC(=O)[C@@H]1CCCCN1C(=O)[C@H](CC1CCCCC1)NCC(=O)O,> 20,> 20
CC(CN(C)C)C(C)(O)Cc1ccc(Cl)cc1 (stereo unspecified) [CLOBUTINOL],> 20,> 20
C[C@H]1O[C@@H](O[C@H]2[C@@H](O)C[C@H](O[C@H]3[C@@H](O)C[C@H](O[C@H]4CC[C@@]5(C)[C@H](CC[C@@H]6[C@@H]5C[C@@H](O)[C@]5(C)[C@@H](C7=CC(=O)OC7)CC[C@]65O)C4)O[C@@H]3C)O[C@@H]2C)C[C@H](O)[C@@H]1O [DIGOXIN],> 20,> 20
COC(=O)C1=C(C)NC(C)=C(C(=O)O[C@@H]2CCN(Cc3ccccc3)C2)[C@H]1c1cccc([N+](=O)[O-])c1,> 20,> 20
Cc1c(C(C)C)c(=O)n(-c2ccccc2)n1C [PROPYPHENAZONE],> 20,> 20
NS(=O)(=O)c1cc(C2(O)NC(=O)c3ccccc32)ccc1Cl (stereo unspecified) [CHLORTHALIDONE],> 20,> 20
Cc1ncc(CNC(=O)N(CCCl)N=O)c(N)n1 [NIMUSTINE],> 20,> 20
CC1C2Cc3ccc(O)cc3C1(C)CCN2CC1CC1 (stereo unspecified),> 20,> 20
Cc1ccc2c(c1)c1c3n2CCNC3CCC1 (stereo unspecified) [PIRLINDOLE],> 20,> 20

SMILES,IC50 [µM],IC50 (read-out: pIC50 (converted)) [µM]
C=CCN1CCC23c4c5ccc(O)c4OC2C(O)C=CC3C1C5 (stereo unspecified),> 20,> 20
CC(C)NNC(=O)c1ccncc1 [IPRONIAZID],> 20,> 20
O=C1CC[C@@H](C(=O)N2CSC[C@H]2C(=O)O)N1 [PIDOTIMOD] ([pGlu]-[Thz]-OH),> 20,> 20
Cc1sc2ccccc2c1CC1=NCCN1 [METIZOLINE],> 20,> 20
O=P(O)(O)OC[C@H](O)CO,> 20,> 20
CC(=O)C12OC(C)(C)OC1CC1C3CCC4=CC(=O)CCC4(C)C3CCC12C (stereo unspecified),> 20,> 20
CCC1(C2OC(C3OC(O)(CO)C(C)CC3C)CC2C)CCC(C2(C)CCC3(CC(O)C(C)C(C(C)C(OC)C(C)C(=O)O)O3)O2)O1 (stereo unspecified),> 10,> 10
CC12CCC(C[N+](C)(CCC[N+](C)(C)C)C1)C2(C)C (stereo unspecified),> 20,> 20
O=c1oc2ccccc2c(O)c1Cc1c(O)c2ccccc2oc1=O [DICUMAROL],> 20,> 20
CC[C@@]1(c2ccccc2)NC(=O)N(C)C1=O,> 20,> 20
CCC(C)(C)c1ccc(CC(C)CN2C[C@@H](C)O[C@@H](C)C2)cc1 (stereo partly specified) [AMOROLFINE],> 20,> 20
CCN(CC)C(=S)SSC(=S)N(CC)CC,> 20,> 20
O=C1N(c2ccccc2)c2ccccc2C1(Cc1ccncc1)Cc1ccncc1 [LINOPIRDINE],> 20,> 20
N[C@@H]1c2cccnc2[C@H](OC(=O)N2CCC(n3c(=O)[nH]c4ncccc43)CC2)CC[C@H]1c1cccc(F)c1F [RIMEGEPANT],> 20,> 20
Cc1cc(CC(=O)O)n(C)c1C(=O)c1ccc(Cl)cc1 [ZOMEPIRAC],> 20,> 20
C[N+]1(C)C[C@H](O)C[C@H]1C(=O)O,> 20,> 20
CN(C)CCc1c[nH]c2ccc(C[C@H]3COC(=O)N3)cc12 [ZOLMITRIPTAN],> 20,> 20
CN1CCN(C2=Nc3cc(F)ccc3Cc3ccccc32)CC1 [FLUPERLAPINE],> 20,> 20
Nc1ncnc2c([C@@H]3N[C@H](CO)[C@@H](O)[C@H]3O)c[nH]c12,> 100,> 100
CCC(=O)N(c1ccc(Cl)c(Cl)c1)[C@@H]1CCC[C@H]1N(C)C,> 20,> 20
CC[C@H]1OC(=O)[C@H](C)[C@@H](O[C@H]2C[C@@](C)(OC)[C@@H](O)[C@H](C)O2)[C@H](C)[C@@H](O[C@@H]2O[C@H](C)C[C@H](N(C)C)[C@H]2O)[C@](C)(O)C[C@@H](C)C(=O)[C@H](C)[C@@H](O)[C@]1(C)O [ERYTHROMYCIN],> 20,> 20
CC(=O)[C@H]1CC[C@H]2[C@@H]3C[C@H](C)C4=CC(=O)CC[C@]4(C)[C@H]3[C@@H](O)C[C@]12C [MEDRYSONE],> 20,> 20
CCC(CC)CC(=O)c1c(C(=O)OC)c(-c2ccc(OC)c(OC)c2)c2c(OC)c(OC)c(OC)cc2c1O,> 20,> 20
COC(=O)CCc1ccc(OCC(O)CNC(C)C)cc1 (stereo unspecified) [ESMOLOL],> 20,> 20
Cc1c(O)c(=O)ccn1C [DEFERIPRONE],> 20,> 20
COc1ccc(-n2nc(CCC(=O)N(C)O)cc2-c2ccc(Cl)cc2)cc1 [TEPOXALIN],> 20,> 20
